For 16 molecules, I and logP results are on record in ChEMBL document CHEMBL1130382, “Inhibition of thyroid hormone uptake by calcium antagonists of the dihydropyridine class” (J Med Chem, 1997).

Series [1] relates to HepG2. The series is described as follows: Inhibitory effect on L-triiodothyronine (L-T3) uptake by human HepG2 hepatoma cells at an application dose 10E-5 M. The format is functional.
Series [2] in a line: Partition coefficient (logP). The conditions noted are these: octanol/water.
The subject of series [3] is HepG2. The series is described as follows: Compound tested for inhibitory effect on L-triiodothyronine (L-T3) uptake by human HepG2 hepatoma cells at an application dose 10E-5 (M). In kind it is functional.

As usually defined, the logP is a log measure of how a compound divides between an organic and an aqueous phase. Low readings indicate a more hydrophilic compound, high ones a more lipophilic compound. In series [1], `CCOC(=O)C1=C(C)N=C(C)/C(=C(/O)OCC)C1c1cccc(C)c1` (stereo not given) displayed an I of 29.7%. Moreover, in series [2], the logP is 3.76. The corresponding values for `CCO/C(O)=C1\C(C)=NC(C)=C(C(=O)OC)C1c1ccccc1C(F)(F)F` (stereo not given) are 23.1% and 3.82. In series [3], `CCOC(=O)C1=C(C)N=C(C)/C(=C(/O)OCC)C1c1cccc(I)c1` (stereo not given) came in with an I of 33.2%. Besides, in series [2], the logP was found to be 4.48.

`CC1=C(C#N)C(c2cccc([N+](=O)[O-])c2)C(C#N)=C(C)N1` registered an I in series [1] of 53.8%. For the same molecule, in series [2], the log partition coefficient (logP) was 1.45.

As for `COC(=O)C1=C(C)NC(C)=C(C(=O)OC)C1c1ccccc1[N+](=O)[O-]` [NIFEDIPINE], the I in series [1] is 80.5%. Consider `c1ccc(Oc2ccccc2)cc1` [DIPHENYLETHER], for which the I in series [1] stood at 22%. The molecule further came in with a lipophilicity (logP) in series [2] of 3.83. `CCOC(=O)C1=C(C)N=C(C)/C(=C(/O)OCC)C1c1cccc(OC)c1` (stereo not given): the I in series [1] stood at 17.5%. Also, the logP in series [2] was 3.22.

In the case of `CCO/C(O)=C1\C(C)=NC(C)=C(C(=O)OC)C1c1ccc([N+](=O)[O-])cc1` (stereo not given), in series [1], the I is listed as 85.8%. The molecule further registered a log partition coefficient (logP) in series [2] of 3.6. Taken in the same sequence, the figures for `CCOC(=O)c1c(C)nc(C)c(C(=O)OCC)c1-c1cccc([N+](=O)[O-])c1` were 28.4% and 3.1. Taken in the same sequence, the figures for `c1ccc(Nc2ccccc2)cc1` [DIPHENYLAMINE] were 20.9% and 2.94.

`O=C(O)c1ccccc1Nc1ccccc1` [FENAMIC ACID] registered an I in series [1] of 20.5%. The molecule further yielded a logP in series [2] of 3.08.

Consider `CCOC(=O)C1=C(C)NC(C)=C(C(=O)OC)C1c1cccc([N+](=O)[O-])c1` (stereo not given) [NITRENDIPINE], for which the I in series [1] was found to be 81.8%. `CCOC(=O)C1=C(C)N=C(C)/C(=C(/O)OCC)C1c1ccc(I)cc1` (stereo not given) showed an I in series [1] of 26.8%. In addition, in series [2], the log partition coefficient (logP) worked out at 4.7. The corresponding values for `CCO/C(O)=C1\C(C)=NC(C)=C(C(=O)OC)C1c1cccc(C(F)(F)F)c1` (stereo not given) are 19.6% and 3.9.

For `CCOC(=O)C1=C(C)NC(C)=C(C(=O)OCC)C1c1cccc(O)c1`, the I in series [1] turned out to be 21.6%. This molecule also came in with a log partition coefficient (logP) in series [2] of 4.03. Taken in the same sequence, the figures for `CCO/C(O)=C1\C(C)=NC(C)=C(C(=O)OC)C1c1ccccc1[N+](=O)[O-]` (stereo not given) were 41.4% and 2.51.
